Data from ChEMBL document CHEMBL3091385, “Radionuclide labeling and evaluation of candidate radioligands for PET imaging of histone deacetylase in the brain” (Bioorg Med Chem Lett, 2013).

Assays:
[1] = Drug uptake in iv dosed baboon liver after 90 mins by PET analysis in presence of SAHA; assay type: ADME, organism-based; settings: papio anubis, in vivo
Brain [2] = assay: Drug uptake in iv dosed baboon whole brain after 90 mins by PET analysis; assay type: ADME, organism-based; settings: papio anubis, in vivo
[3] = Drug uptake in iv dosed baboon heart after 90 mins by PET analysis in presence of SAHA; assay type: ADME, organism-based; settings: papio anubis, in vivo
[4] = Drug uptake in iv dosed baboon kidney after 90 mins by PET analysis in presence of SAHA; assay type: ADME, organism-based; settings: papio anubis, in vivo
[5] = Drug uptake in iv dosed baboon cerebellum after 90 mins by PET analysis; assay type: ADME, organism-based; settings: papio anubis, in vivo
[6] = Protein binding in plasma (unknown origin); assay type: ADME, cell-free; settings: unidentified, read-out: PPB (converted)
[7] = Drug uptake in iv dosed baboon heart after 90 mins by PET analysis; assay type: ADME, organism-based; settings: papio anubis, in vivo
[8] = Drug uptake in iv dosed baboon caudate after 90 mins by PET analysis; assay type: ADME, organism-based; settings: papio anubis, in vivo
[9] = Drug uptake in iv dosed baboon liver after 90 mins by PET analysis; assay type: ADME, organism-based; settings: papio anubis, in vivo
[10] = Drug uptake in iv dosed baboon putamen after 90 mins by PET analysis; assay type: ADME, organism-based; settings: papio anubis, in vivo
[11] = Lipophilicity, log D of the compound at pH 7.4; assay type: physicochemical; settings: buffer
[12] = Drug uptake in iv dosed baboon kidney after 90 mins by PET analysis; assay type: ADME, organism-based; settings: papio anubis, in vivo
Brain [13] = assay: Drug uptake in iv dosed baboon brain after 90 mins by PET analysis; assay type: ADME, organism-based; settings: papio anubis, in vivo

SMILES | Drug uptake [1] | Drug uptake (Brain [2]) | Drug uptake [3] | Drug uptake [4] | Drug uptake [5] | fraction unbound [6] | Drug uptake [7] | Drug uptake [8] | Drug uptake [9] | Drug uptake [10] | logD ([11]; read-out: logD) | Drug uptake [12] | Drug uptake (Brain [13]) | logD [11]
[11CH3]Oc1ccc(C(=O)CCCCCCC(=O)NO)cc1 | Active | Active | Active | Active | Active | 0.085 | Active | Active | Active | Active | 0.5 | Active | Active | –
Nc1ccccc1NC(=O)c1ccc(CN[11C](=O)OCc2cccnc2)cc1 | – | – | – | – | – | – | – | – | – | – | 1.79 | – | – | –
O=C(C[18F])NCCCCCC(=O)Nc1ccccc1 | – | – | – | – | – | – | – | – | – | – | – | – | – | 1.39
